The source of these data is patent US11267825B2 (AICURIS GMBH & CO. KG, priority 2017, dated 2022).

One experiment deals with HBV. As to the kind of experiment: Determination of HBV DNA from the supernatants of HepAD38 cells (anti-HBV activity). It counts as cell-based, hepatitis B virus. Conditions: Hepatitis B virus, 144 h; HBV DNA in HepAD38 supernatant at day 6; read-out: Cell Activity (EC50). In short, it runs like this:
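EC50 values were obtained by non-linear regression of HBV DNA copy numbers measured by qPCR against pCH-9/3091 plasmid standards. The DNA came from filtered supernatants collected on day 6. Before that, tetracycline-withdrawn HepAD38 cells had been exposed to serial half-log compound dilutions, with tetracycline-treated cells as the non-producing control.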

In a further experiment the target is HBV core protein (UniProt P03146). The class given is biochemical. Conditions: read-out: Assembly Activity (IC50); BODIPY-FL labelled core protein, assembly started with NaCl, read after 6 min. A digest of the protocol:
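Compounds tested at 8 concentrations in 0.5-log steps from 100, 31.6 or 10 μM against 1.0–2.0 μM BODIPY-FL-labelled Cys150 core dimers (residues 1–149), 50 mM HEPES pH 7.5. NaCl ([…] final) triggered assembly; quenching read at 6 min, 477/525 nm, with 2.5 M and 0 M NaCl as controls; EC50 by nonlinear fit.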

Molecules are shown by their SMILES. Where only a bound is given, the exact number is not on record here.

Sequence of HBV core protein (P03146 whole entry, looked up, the tested form may be a part): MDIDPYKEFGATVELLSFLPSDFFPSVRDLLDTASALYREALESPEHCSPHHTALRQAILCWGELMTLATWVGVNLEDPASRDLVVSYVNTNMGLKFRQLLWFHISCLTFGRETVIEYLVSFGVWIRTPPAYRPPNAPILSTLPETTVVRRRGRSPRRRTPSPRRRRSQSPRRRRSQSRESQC

Take `N#Cc1ccc2cc(C(=O)N3CCc4nc(N)sc4C3)[nH]c2c1` [Example 17, 2-{2-amino-4H,5H,6H,7H-[1,3]thiazolo[5,4-c]pyridine-5-carbonyl}-1H-indole-6-carbonitrile]: the EC50 in the experiment with HBV was 1 to 10 µM. In addition, on HBV core protein, the IC50 was less than 100 µM.
The corresponding values for `O=C(c1cc2ccccc2[nH]1)N1CCc2nc(NCCN3CCOCC3)sc2C1` [Example 36, 5-(1H-indole-2-carbonyl)-N-[2-(morpholin-4-yl)ethyl]-4H,5H,6H,7H-[1,3]thiazolo[5,4-c]pyridin-2-amine] are 1 to 10 µM and 5 to 10 µM.
Regarding `C[C@H](O)CNc1nc2c(s1)CN(C(=O)c1cc3ccccc3[nH]1)CC2` [Example 99, (2S)-1-{[5-(1H-indole-2-carbonyl)-4H,5H,6H,7H-[1,3]thiazolo[5,4-c]pyridin-2-yl]amino}propan-2-ol], the EC50 in the experiment with HBV is less than 1 µM. For the same compound, the IC50 on HBV core protein is less than 5 µM.
On to `O=C(c1cc2ccccc2[nH]1)N1CCc2nc(NCC(CO)C3CC3)sc2C1` (centres unmarked) [Example 284, 2-cyclopropyl-3-{[5-(1H-indole-2-carbonyl)-4H,5H,6H,7H-[1,3]thiazolo[5,4-c]pyridin-2-yl]amino}propan-1-ol], for which the 50% effective concentration (EC50) with HBV is less than 1 µM. For the same compound, the IC50 on HBV core protein is less than 5 µM.
The corresponding values for `CCOCC(=O)Nc1nc2c(s1)CN(C(=O)c1cc3ccccc3[nH]1)CC2` [Example 4, 2-ethoxy-N-[5-(1H-indole-2-carbonyl)-4H,5H,6H,7H-[1,3]thiazolo[5,4-c]pyridin-2-yl]acetamide] are less than 1 µM and less than 5 µM.
As to `NC(=O)CNc1nc2c(s1)CN(C(=O)c1cc3ccccc3[nH]1)CC2` [Example 278, 2-{[5-(1H-indole-2-carbonyl)-4H,5H,6H,7H-[1,3]thiazolo[5,4-c]pyridin-2-yl]amino}acetamide], the EC50 in the experiment with HBV was 1 to 10 µM. In addition, the IC50 at HBV core protein is less than 100 µM.
On the same counts, the results for `Nc1nc2c(s1)CN(C(=O)c1cc3ccc(Br)cc3[nH]1)CC2` [Example 92, 5-(6-bromo-1H-indole-2-carbonyl)-4H,5H,6H,7H-[1,3]thiazolo[5,4-c]pyridin-2-amine] are less than 1 µM and less than 5 µM.
`O=C(c1cc2ccccc2[nH]1)N1CCc2nc(NC3CCC3)sc2C1` [Example 429, N-cyclobutyl-5-(1H-indole-2-carbonyl)-4H,5H,6H,7H-[1,3]thiazolo[5,4-c]pyridin-2-amine]: the EC50 in the experiment on HBV is less than 1 µM. Also, the IC50 on HBV core protein was less than 5 µM.
With `CCc1cc(F)cc2[nH]c(C(=O)N3CCc4nc(NCC5(O)CCC5)sc4C3)cc12` [Example 363, 1-({[5-(4-ethyl-6-fluoro-1H-indole-2-carbonyl)-4H,5H,6H,7H-[1,3]thiazolo[5,4-c]pyridin-2-yl]amino}methyl)cyclobutan-1-ol], the EC50 in the experiment on HBV is less than 1 µM. Further, the IC50 at HBV core protein was less than 5 µM.
The corresponding values for `CCc1cc(F)cc2[nH]c(C(=O)N3CCc4nc(N[C@H]5CC[C@@H](O)CC5)sc4C3)cc12` [Example 394, (1s,4s)-4-{[5-(4-ethyl-6-fluoro-1H-indole-2-carbonyl)-4H,5H,6H,7H-[1,3]thiazolo[5,4-c]pyridin-2-yl]amino}cyclohexan-1-ol] are less than 1 µM and less than 5 µM.
With `Cc1ccc2cc(C(=O)N3CCc4nc(N)sc4C3)[nH]c2c1` [Example 150, 5-(6-methyl-1H-indole-2-carbonyl)-4H,5H,6H,7H-[1,3]thiazolo[5,4-c]pyridin-2-amine], in the experiment on HBV, the EC50 is less than 1 µM. Moreover, the concentration for half-maximal inhibition (IC50) on HBV core protein is less than 5 µM.
The corresponding values for `N#Cc1cc(F)cc2[nH]c(C(=O)N3CCc4nc(N)sc4C3)cc12` [Example 77, 2-{2-amino-4H,5H,6H,7H-[1,3]thiazolo[5,4-c]pyridine-5-carbonyl}-6-fluoro-1H-indole-4-carbonitrile] are less than 1 µM and less than 5 µM.
In the case of `Nc1nc2c(s1)CN(C(=O)c1cc3c(C4CC4)cccc3[nH]1)CC2` [Example 82, 5-(4-cyclopropyl-1H-indole-2-carbonyl)-4H,5H,6H,7H-[1,3]thiazolo[5,4-c]pyridin-2-amine], in the experiment with HBV, the EC50 fell in the range of 1 to 10 µM. Moreover, at HBV core protein, the IC50 lay in the range of 5 to 10 µM.
